Measured values from PubChem BioAssay (NCI).
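Grown in 96-well plates, cells were treated for 48 hours with each compound at five concentrations. Insufficient inhibition: endpoint recorded as highest concentration tested. The concentration for full growth arrest is given as TGI.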

Legend:
Assay in all cases: inhibition of tumour cell growth, NCI panel, 48 h
[1] = tested on: SNB-78 CNS
[2] = tested on: NCI-H23 lung
[3] = tested on: HL-60(TB) leukemia
[4] = tested on: DLD-1 colon
[5] = tested on: SNB-19 CNS
[6] = tested on: SW-620 colon
[7] = tested on: HCT-116 colon
[8] = tested on: MOLT-4 leukemia
[9] = tested on: LOX IMVI melanoma
[10] = tested on: OVCAR-4 ovarian
[11] = tested on: NCI-H460 lung
[12] = tested on: UACC-62 melanoma
[13] = tested on: HOP-18 NSCLC
[14] = tested on: SF-268 CNS
[15] = tested on: DMS 273 small cell lung
[16] = tested on: KM20L2 colon
[17] = tested on: M14 melanoma
[18] = tested on: HT29 colon
[19] = tested on: UO-31 renal
[20] = tested on: M19-MEL melanoma
[21] = tested on: KM12 colon
[22] = tested on: HCC-2998 colon
[23] = tested on: IGROV1 ovarian
[24] = tested on: CCRF-CEM leukemia
[25] = tested on: K-562 leukemia
[26] = tested on: LXFL 529 NSCLC
[27] = tested on: TK-10 renal
[28] = tested on: SN12C renal
[29] = tested on: NCI-H522 lung
[30] = tested on: ACHN renal
[31] = tested on: RPMI-8226 leukemia
[32] = tested on: SR leukemia
[33] = tested on: A549 NSCLC
[34] = tested on: SF-295 CNS
[35] = tested on: U251 CNS
[36] = tested on: XF 498 CNS
[37] = tested on: NCI-H226 lung
[38] = tested on: SK-MEL-2 melanoma
[39] = tested on: OVCAR-5 ovarian
[40] = tested on: OVCAR-3 ovarian
[41] = tested on: HOP-62 NSCLC
[42] = tested on: HCT-15 colon
[43] = tested on: RXF 393 renal
[44] = tested on: 786-0 renal
[45] = tested on: SK-MEL-28 melanoma
[46] = tested on: UACC-257 melanoma
[47] = tested on: MALME-3M melanoma
[48] = tested on: DMS 114 small cell lung
[49] = tested on: CAKI-1 renal
[50] = tested on: COLO 205 colon
[51] = tested on: SK-OV-3 ovarian
[52] = tested on: SF-539 CNS
[53] = tested on: EKVX NSCLC
[54] = tested on: A498 renal
[55] = tested on: OVCAR-8 ovarian

Measured: TGI

CC(C)(C)c1cc2c3c(c1)C(C(F)(F)F)(C(F)(F)F)O[Te]3(C)OC2(C(F)(F)F)C(F)(F)F
not listed: [54] | [55]
> 100 µM: all other assays above

Fc1ccccc1C1CC(c2ccc3ccccc3c2)=Nc2ccccc2S1 (stereo not drawn)
not listed: [4] | [25] | [31] | [42] | [48]
> 100 µM: all other assays above
